Some test systems named below: DMS 114 small cell lung; HOP-18 NSCLC; KM20L2 colon; M19-MEL melanoma; RXF-631 renal.
Common to all, as to assay: inhibition of tumour cell growth, NCI panel, 48 h

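Protocol summary: plate cells (96-well), add compound at 5 concentrations, incubate 48 h, interpolate endpoints linearly. TGI: concentration producing complete growth inhibition.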 A value given as a limit tells only on which side of the number the result lay.

In the case of `COc1cc(C(C)O)c[n+](Cc2ccccc2)c1` (stereo not given), the TGI in the test on DMS 114 small cell lung, in the test on HOP-18 NSCLC, with KM20L2 colon, in the test with M19-MEL melanoma and in the test with RXF-631 renal was greater than 100 µM throughout.

`CN1C(c2ccccc2)CC(=O)C(N)C1c1ccccc1` (stereo not given): the TGI is greater than 100 µM in the test with HOP-18 NSCLC, greater than 90.6 µM in the test with KM20L2 colon and 55.5 µM with M19-MEL melanoma.

In the case of `Nc1[nH]c(=O)nc2c1cnn2C1CCCCO1` (stereo not given), the TGI in the test with HOP-18 NSCLC, with KM20L2 colon and with RXF-631 renal was greater than 100 µM each time.

Consider `CC(N)Cc1ccc(Cl)c(Cl)c1` (stereo not given), for which the TGI in the test on DMS 114 small cell lung is 48.1 µM; with HOP-18 NSCLC, greater than 77.1 µM; in the test with KM20L2 colon it was 53.7 µM; in the test with M19-MEL melanoma, 47 µM.

For the origin of these results see PubChem BioAssay (NCI).
